Measured values: patent publication US20230365561A1, “BETA-LACTAMASE INHIBITORS AND THEIR PREPARATION” (NINGXIA ACADEMY OF AGRICUL TURE AND FORESTRY SCIENCES, priority 2020, published 2023)
Structures can show the parent of a compound that is named as a salt.

Legend:
Type in all cases: cell-based
[1] = tested on: E. coli clinical isolate (strain 1); experiment: MIC by broth microdilution (alone and in combination with meropenam), strain 1; conditions: Escherichia coli, compound alone, read-out: MIC, antibacterial activity of example alone
Description: (§1) Compounds of the present invention alone, meropenam (MER) alone, and as a combination with test antibiotic (meropenam) were tested for antimicrobial activity by determing minimum inhibitory concentration (MIC, mg/L) using the broth microdilution method according to the guidelines of the Clinical Laboratories and Stansards Insitute (“Methods for Dilution Antimicrobial Suscetibility Tests for Bacterial that Grow Aerobiclly”, Approved standard, […]., Clinical and Laboratories Stanards Institute (CLSI) Document M7-A8, Wayne, Pa., USA, 2009). Meropenam as a test antibiotic compound was dissolved in DMSO. Meropenam was then diluted in microbial growth medium (Mueller-Hinton Broth II, cation adjusted) resulting in a final concention range of 0.125-64 mg/L in serial two-fold dilution. In all cases the filnal DMSO concentraion was less than 0.5%. Bacteria were added to 96-well microtitre plates containing the serial two-fold dilutions of the compoumds; the final cell density was appoximately 5x10^5 colony forming units/mL (CFU/mL). Plates were incubated at 37° C. for 18-24 hours and read visually. The MIC, i.e. the lowest concentration of the test compound that inhibited visible growth of the bacteria, was recorded. The same assay conditions were used when the compounds of present invention alone, and as a combination with test meropenam antibiotic compound was tested for minmum inhibitory concentration (MIC, mg/L). Whileest meropenam was serially diluted as descrribed above, a constant concentration of the present invention of 4 µg/mL was used.
(§2) Bacterial strains that were used to evaluate the antimicrobial activity using the MIC determination included but were not limited to E. coli clinical isolate (strain 1), E. coli 8739 (strain 2), K. pneumoniae clinical isolate (strain 3), K. pneumoniae 700603 (strain 4), E. cloacae clinical isolate (strain 5), E. cloacae 700323 (strain 6), A. baumannii clinical isolate (strain 7), A. baumannii 19606 (strain 8), P. aeruginosa clinical isolate (strain 9), P. aeruginosa 9027 (strain 10).

E. coli 8739 (strain 2) = experiment: MIC by broth microdilution (alone and in combination with meropenam), strain 2; conditions: Escherichia coli, compound alone, read-out: MIC, antibacterial activity of example alone
Description: as §1, §2

[2] = tested on: K. pneumoniae clinical isolate (strain 3); experiment: MIC by broth microdilution (alone and in combination with meropenam), strain 3; conditions: Klebsiella pneumoniae, compound alone, read-out: MIC, antibacterial activity of example alone
Description: as §1, §2

[3] = tested on: K. pneumoniae 700603 (strain 4); experiment: MIC by broth microdilution (alone and in combination with meropenam), strain 4; conditions: Klebsiella pneumoniae, compound alone, read-out: MIC, antibacterial activity of example alone
Description: as §1, §2

[4] = tested on: E. cloacae clinical isolate (strain 5); experiment: MIC by broth microdilution (alone and in combination with meropenam), strain 5; conditions: Enterobacter cloacae, compound alone, read-out: MIC, antibacterial activity of example alone
Description: as §1, §2

[5] = tested on: E. cloacae 700323 (strain 6); experiment: MIC by broth microdilution (alone and in combination with meropenam), strain 6; conditions: Enterobacter cloacae, compound alone, read-out: MIC, antibacterial activity of example alone
Description: as §1, §2

[6] = tested on: A. baumannii clinical isolate (strain 7); experiment: MIC by broth microdilution (alone and in combination with meropenam), strain 7; conditions: Acinetobacter baumannii, compound alone, read-out: MIC, antibacterial activity of example alone
Description: as §1, §2

[7] = tested on: A. baumannii 19606 (strain 8); experiment: MIC by broth microdilution (alone and in combination with meropenam), strain 8; conditions: Acinetobacter baumannii, compound alone, read-out: MIC, antibacterial activity of example alone
Description: as §1, §2

[8] = tested on: P. aeruginosa clinical isolate (strain 9); experiment: MIC by broth microdilution (alone and in combination with meropenam), strain 9; conditions: Pseudomonas aeruginosa, compound alone, read-out: MIC, antibacterial activity of example alone
Description: as §1, §2

[9] = tested on: P. aeruginosa 9027 (strain 10); experiment: MIC by broth microdilution (alone and in combination with meropenam), strain 10; conditions: Pseudomonas aeruginosa, compound alone, read-out: MIC, antibacterial activity of example alone
Description: as §1, §2

Measured: MIC

N=C(NC(=O)CCc1ccccn1)[C@@H]1CC[C@@H]2CN1C(=O)N2OS(=O)(=O)[O-].[Na+] [Ex.13, Sodium (2S,5R)-7-oxo-2-(N-(3-(pyridin-2-yl)propanoyl)carbamimidoyl)-1,6-diazabicyclo[3.2.1]octan-6-yl Sulfate]
> 64 mg/L: all assays above

CC(C)(C)OC(=O)N1CCC(C(=O)NC(=N)[C@@H]2CC[C@@H]3CN2C(=O)N3OS(=O)(=O)[O-])CC1.[Na+] [Ex.14, Sodium (2S,5R)-2-(N-(1-(tert-butoxycarbonyl)piperidine-4-carbonyl)carbamimidoyl)-7-oxo-1,6-diazabicyclo[3.2.1]octan-6-yl Sulfate]
> 64 mg/L: all assays above

N=C(NC(=O)CN)[C@@H]1CC[C@@H]2CN1C(=O)N2OS(=O)(=O)[O-].[Na+] [Ex.15, Sodium (2S,5R)-2-(N-glycylcarbamimidoyl)-7-oxo-1,6-diazabicyclo[3.2.1]octan-6-yl Sulfate]
> 64 mg/L: all assays above

N=C(NC(=O)c1cscn1)[C@@H]1CC[C@@H]2CN1C(=O)N2OS(=O)(=O)[O-].[Na+] [Ex.16, Sodium (2S,5R)-7-oxo-2-(N-(thiazole-4-carbonyl)carbamimidoyl)-1,6-diazabicyclo[3.2.1]octan-6-yl Sulfate]
> 64 mg/L: all assays above

N=C(NC(=O)c1ccc(F)cc1)[C@@H]1CC[C@@H]2CN1C(=O)N2OS(=O)(=O)O [Ex.17, (2S,5R)-2-(N-(4-fluorobenzoyl)carbamimidoyl)-7-oxo-1,6-diazabicyclo[3.2.1]octan-6-yl Hydrogen Sulfate]
> 64 mg/L: all assays above

N=C(NC(=O)C1CCNCC1)[C@@H]1CC[C@@H]2CN1C(=O)N2OS(=O)(=O)[O-].[Na+] [Ex.18, Sodium (2S,5R)-7-oxo-2-(N-(piperidine-4-carbonyl)carbamimidoyl)-1,6-diazabicyclo[3.2.1]octan-6-yl Sulfate]
> 64 mg/L: all assays above

CC(=O)NCCC(=O)NC(=N)[C@@H]1CC[C@@H]2CN1C(=O)N2OS(=O)(=O)[O-].[Na+] [Ex.19, Sodium (2S,5R)-2-(N-(3-acetamidopropanoyl)carbamimidoyl)-7-oxo-1,6-diazabicyclo[3.2.1]octan-6-yl Sulfate]
> 64 mg/L: all assays above

N=C(NC(=O)c1cocn1)[C@@H]1CC[C@@H]2CN1C(=O)N2OS(=O)(=O)[O-].[Na+] [Ex.20, Sodium (2S,5R)-2-(N-(oxazole-4-carbonyl)carbamimidoyl)-7-oxo-1,6-diazabicyclo[3.2.1]octan-6-yl Sulfate]
> 64 mg/L: all assays above

N=C(NC(=O)c1cnco1)[C@@H]1CC[C@@H]2CN1C(=O)N2OS(=O)(=O)[O-].[Na+] [Ex.21, Sodium (2S,5R)-2-(N-(oxazole-5-carbonyl)carbamimidoyl)-7-oxo-1,6-diazabicyclo[3.2.1]octan-6-yl Sulfate]
> 64 mg/L: all assays above

N=C(NC(=O)c1nc(N)cs1)[C@@H]1CC[C@@H]2CN1C(=O)N2OS(=O)(=O)[O-].[Na+] [Ex.22, Sodium (2S,5R)-2-(N-(4-aminothiazole-2-carbonyl)carbamimidoyl)-7-oxo-1,6-diazabicyclo[3.2.1]octan-6-yl Sulfate]
> 64 mg/L: all assays above

N=C(NC(=O)c1nccs1)[C@@H]1CC[C@@H]2CN1C(=O)N2OS(=O)(=O)[O-].[Na+] [Ex.23, Sodium (2S,5R)-7-oxo-2-(N-(thiazole-2-carbonyl)carbamimidoyl)-1,6-diazabicyclo[3.2.1]octan-6-yl Sulfate]
> 64 mg/L: all assays above

N=C(NC(=O)c1csc(C(F)(F)F)n1)[C@@H]1CC[C@@H]2CN1C(=O)N2OS(=O)(=O)[O-].[Na+] [Ex.24, Sodium (2S,5R)-7-oxo-2-(N-(2-(trifluoromethyl)thiazole-4-carbonyl)carbamimidoyl)-1,6-diazabicyclo[3.2.1]octan-6-yl Sulfate]
> 64 mg/L: all assays above
